Data from patent US20240261306A1, “FORMULATIONS OF PSILOCYBIN” (CYBIN IRL LIMITED, priority 2021, published 2024).
Marks after values point to notes of the source that are not given here.

Legend:
[1] = XRPD of freeze-dried solid dispersions and admixtures; format: physicochemical; conditions: as prepared, solid form of psilocybin (PY) in freeze-dried dispersion, physical mixture or starting material
Description: The samples were prepared in silicon low background holders using light manual pressure to keep the sample surface flat and level with the reference surface of the sample holder. The single crystal Si low background holder has a circular recess (10 mm diameter and about 0.2 mm depth) that holds the sample.
The Rigaku Smart-Lab diffraction system used was configured for Bragg-Brentano reflection geometry using a line source X-ray beam. The Bragg-Brentano geometry was controlled by passive divergence and receiving slits with the sample itself acting as the focusing component for the optics. The figures were created using PlotMon V2.1.1.0.
High-resolution XRPD analysis was performed using Rigaku Smart-Lab diffraction system configured for Debye-Scherrer transmission geometry. The Debye-Scherrer convergent beam geometry utilizes a curved x-ray mirror to focus the incident beam through the sample and onto the detector plane. The axial divergence of the X-ray beam was controlled by 5.0° Soller slits in both the incident and diffracted beam paths.
Freeze-dried solid dispersions of Examples 1-5, and corresponding Reference Examples, were characterized using X-ray powder diffraction (XRPD).

[2] = XRPD and mDSC characterization of spray dried solid dispersions (t=0); format: physicochemical; conditions: Characterization (t = 0)
Description: X-ray power diffraction (XRPD): XRPD patterns were collected on a Bruker AXS D2 diffractometer using Cu Kα radiation (30 kV, 10 mA), θ-θ geometry, using a LynxEye detector from 5-42° […].
The details of the data collection are: • Angular range: 5 to 42° 2θ • Step size: 0.024° 2θ • Collection time: 0.1 seconds per step.
Samples were run under ambient conditions and prepared as flat plate specimens using powder without grinding. Approximately 1-2 mg of the sample was lightly pressed on a silicon wafer to obtain a flat surface.
Modulated differential scanning calorimetry (mDSC): TOPEM® is a temperature modulated DSC method which differs from conventional DSC in allowing the total heat flow to be separated into reversing and non-reversing heat flow components. Such techniques help distinguish between processes or transitions that overlap or lie very close to one another. The glass transition temperature (Tg) was determined from the reversible heatflow component.
TOPEM® DSC data were collected on a Mettler DSC 3+ equipped with a 34 position auto-sampler. The instrument was calibrated for energy and temperature using certified indium. Typically, 3-5 mg of each sample, in a pin-holed aluminium pan, was heated at 2 K·min^−1 from 30° C. to 220° C. with a pulse height of 0.64 K and a pulse width 15-30 sec. A nitrogen purge at 50 mL·min^−1 was maintained over the sample. […]

With CN(C)CCc1c[nH]c2cccc(OP(=O)(O)O)c12 [Crystalline PY starting material, 3-(2-(dimethylamino)ethyl)-1H-indol-4-yl dihydrogen phosphate] the “XRPD Results” value [1] was “crystalline PY (methanol solvate)^a” and the “XRPD Results” value ([1]; listed as crystalline psilocybin starting material) was “crystalline psilocybin methanol solvate with a small quantity of Form B”.

With CN(C)CCc1c[nH]c2cccc(OP(=O)(O)O)c12 [Psilocybin (PY), 3-(2-(dimethylamino)ethyl)-1H-indol-4-yl dihydrogen phosphate] the XRPD [2] was “Amorphous” and the Tg ([2]; mDSC) was 161 °C.
